Among the data in US20240131168A1, “NAPHTHALENE RING-CONTAINING COMPOUND, PHARMACEUTICAL COMPOSITION CONTAINING SAME, AND USE THEREOF” (JIANGSU YAHONG MEDITECH CO., LTD., priority 2021, published 2024) are IC50 and inhibition values, retold here.

SMILES strings stand for the structures.

Common to all, as to format: cell-based
One assay has as its system MCF-7. The experiment in a line: CellTiter-Glo cell proliferation inhibition, MCF-7 (Effect Example 2). To be noted: Homo sapiens, MCF7, 144 h, MCF-7 (CTG), 6 days, starting concentration 10 μM; for inhibition at up to 10 µM: read-out: IH % max (maximum inhibition percentage). In outline:
(§1)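 MCF-7, TamR-MCF-7, and CRISPR-edited MCF-7 ER D538G or Y537S cells were seeded at 1,000 or 2,000 cells/well in EMEM and cultured 24 h. They were then exposed to a 4-fold, 10-point series (top 10 µM before addition to wells) for 6 days or 72 h at 37 °C. CellTiter-Glo luminescence gave IC50 and maximum % inhibition.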

Another assay relates to TamR-MCF-7. The experiment in a line: CellTiter-Glo cell proliferation inhibition, TamR-MCF-7. To be noted: 144 h, TamR-MCF-7 (CTG), 6 days, starting concentration 10 μM; for inhibition at up to 10 µM: read-out: IH % max (maximum inhibition percentage). In short, it runs like this: as §1
Another assay concerns MCF-7 ER^D538G. The experiment in a line: CellTiter-Glo cell proliferation inhibition, MCF-7 ER^D538G. To be noted: Homo sapiens, MCF7, 144 h, MCF-7 ER^D538G (CTG), 6 days, starting concentration 10 μM; for inhibition at up to 10 µM: read-out: IH % max (maximum inhibition percentage). In short, it runs like this: as §1
Another assay relates to MCF-7 ER^Y537S. The experiment in a line: CellTiter-Glo cell proliferation inhibition, MCF-7 ER^Y537S. To be noted: Homo sapiens, MCF7, 144 h; MCF-7 ER^Y537S (CTG), 6 days, starting concentration 10 μM; read-out: IH % max (maximum inhibition percentage). In short, it runs like this: as §1
The subject of a further assay is MDA-MB-231. The experiment in a line: CellTiter-Glo cell proliferation inhibition, MDA-MB-231. To be noted: Homo sapiens, 144 h, MDA-MB-231 (CTG), 6 days, starting concentration 10 μM; for inhibition at up to 10 µM: read-out: IH % max (maximum inhibition percentage). The source says: 1. Cell line • (1) Breast cancer cell lines and their culture media: • MCF-7 (ATCC; Cat. No.: HTB-22), a Luminal A breast cancer cell; • TamR-MCF-7 (ATCC; Cat. No.: CRL-3435), a breast cancer cell; • MCF-7 ER^D538G: a Luminal A breast cancer cell obtained by constructing MCF-7 (ATCC; Cat. No.: HTB-22) using CRISPR-Cas9 gene editing technology; • MCF-7 ER^Y537S: a Luminal A breast cancer cell obtained by constructing MCF-7 (ATCC; Cat. No.: HTB-22) using CRISPR-Cas9 gene editing technology; • MDA-MB-231: (manufacturer: Nanjing CoBioer Biosciences Co., Ltd.), a triple-negative breast cancer cell; • MDA-MB-468: (manufacturer: Nanjing CoBioer Biosciences Co., Ltd.), a triple-negative breast cancer cell.
Herein, the culture medium of MCF-7, TamR-MCF-7, MCF-7 ER^D538G, and MCF-7 ER^Y537S was EMEM; • the culture medium of MDA-MB-231 and MDA-MB-468 was DMEM.
2. Reagents • Culture medium EMEM (Gibco, 1964507) • Culture medium DMEM (Gibco, 12430-054) • Fetal bovine serum (Gibco, 10091148) • Penicillin-streptomycin double antibody (Gibco, S110JV) • DPBS (Gibco, 14190-144) • CellTiter-Glo® assay kit (Promega, G7573) • Trypsin (0.25%) (Gibco, 25200-056) • DMSO (Sigma, D2650)
3. Instruments • Biosafety cabinet (AIRTECH, BSC-1300A II) • Automated cell counter (Life Technologies, countess II) • Multifunctional microplate reader (Biotek, H1FM) • Orbital shaker (Hangzhou Allsheng Instruments Co., Ltd., OS-100) • XLFIT 5.3 (Inforstack Shanghai Co., Ltd.)
For this test method, the following experiments were performed in a biosafety cabinet, with the specific steps as follows: • (1) Cells were inoculated in a 96-well plate. One day later, the previous culture medium was poured off, 5 mL of DPBS was added to wash the cells, and then DPBS was pipetted and discarded. An appropriate amount of trypsin was then added. The plate was digested in a 37° C., 5% CO2 cell incubator for about 2 to 5 minutes and then taken out. Anew corresponding culture medium was added, and pipetted up and down to resuspend the cells evenly. The cells were then counted using an automated cell counter. • (2) Each cell was inoculated in columns 1 to 11 of a 96-well plate (Corning, Cat. No.: 3610) at a density of 1,000 or 2,000 cells per well in 100 μL of culture medium, and 100 μL of the corresponding culture medium without cells was added to the wells in column 12. The plate was then placed in a 37° C., 5% CO2 incubator for 24 hours. • (3) The compound of the present disclosure and the control drug fulvestrant (Selleck; Cat. No.: S1191) were then 4-fold serially diluted to 10 dose points starting at 10 μM. 10 μL of the serially diluted compound was pipetted and added to 100 μL of cells in columns 1 to 10, and 10 μL of the corresponding culture medium containing 0.33 v % DMSO was added to both columns 11 and 12. The plate was incubated in a 37° C., 5% CO2 incubator for 6 days or 72 hours (Note: column 11 was used as a MAX well with cells but without compound; column 12 was used as a MIN well without cells […]). • (4) The cell viability detection reagent in the CellTiter-Glo® assay kit was then added to the 96-well plate at 50 μL per well according to the instructions, and shaken on an orbital shaker in the dark for 5 to 10 minutes. The cell viability was then measured using a multifunctional microplate reader. Finally, the inhibition of cell proliferation by the compound of the present disclosure was plotted by XLFIT software, and the IC50 value (half inhibitory concentration) and the IH % max (maximum inhibition percentage) of the compound of the present disclosure were calculated.
Compounds D64 to D69 were tested for MDA-MB-231 (CTG) and MDA-MB-468 (CTG) with an incubation time of 72 hours in the incubator.

For the next assay, the system named is MDA-MB-468. The experiment in a line: CellTiter-Glo cell proliferation inhibition, MDA-MB-468. The conditions noted are these: Homo sapiens, 144 h, MDA-MB-468 (CTG), 6 days, starting concentration 10 μM; for inhibition at up to 10 µM: read-out: IH % max (maximum inhibition percentage).

Regarding `CS(=O)(=O)c1ccc(-c2ccc3cc(O)ccc3c2Oc2ccc(OCCN3CCN(c4ccc5c(c4)C(=O)N(C4CCC(=O)NC4=O)C5=O)CC3)cc2)cc1` (centres unmarked) [Compound D6, 2-(2,6-dioxopiperidin-3-yl)-5-(4-(2-(4-((6-hydroxy-2-(4-(methylsulfonyl)phenyl)naphthalen-1-yl)oxy)phenoxy)ethyl)piperazin-1-yl)isoindoline-1,3-dione], the 50% inhibitory concentration (IC50) in the assay on MCF-7 stood at 133 nM; in the assay with TamR-MCF-7, 331 nM; with MCF-7 ER^D538G it was 428 nM; in the assay with MDA-MB-231, 102 nM; with MDA-MB-468 it was 260 nM. The inhibition at up to 10 µM worked out at 100% in the assay with MCF-7; 90% with TamR-MCF-7; 91% with MCF-7 ER^D538G; 78% in the assay on MCF-7 ER^Y537S; 100% in the assay on MDA-MB-231; 98% in the assay on MDA-MB-468.
For the molecule `CN(CCOCCN1CCN(c2ccc3c(c2)CN(C2CCC(=O)NC2=O)C3=O)CC1)CCOc1ccc(Oc2c(-c3ccc(S(C)(=O)=O)cc3)ccc3cc(O)ccc23)cc1` (centres unmarked) [Compound D10, 3-(5-(4-(2-(2-((2-(4-((6-hydroxy-2-(4-(methylsulfonyl)phenyl)naphthalen-1-yl)oxy)phenoxy)ethyl)methylamino)ethoxy)ethyl)piperazin-1-yl)-1-oxoisoindolin-2-yl)piperidine-2,6-dione], the inhibition at up to 10 µM in the assay on MCF-7 came to 40%; in the assay on TamR-MCF-7, 36%; in the assay on MCF-7 ER^D538G, 67%; in the assay with MCF-7 ER^Y537S, 54%; with MDA-MB-231, 38%; in the assay with MDA-MB-468, 68%.
Regarding `CCN(CCOCCOc1ccc2c(c1)C(=O)N(C1CCC(=O)NC1=O)C2=O)CCOc1ccc(Oc2c(-c3ccc(S(C)(=O)=O)cc3)ccc3cc(O)ccc23)cc1` (centres unmarked) [Compound D23, 2-(2,6-dioxopiperidin-3-yl)-5-(2-(2-(ethyl(2-(4-((6-hydroxy-2-(4-(methylsulfonyl)phenyl)naphthalen-1-yl)oxy)phenoxy)ethyl)amino)ethoxy)ethoxy)isoindoline-1,3-dione], the inhibition at up to 10 µM is 73% with MCF-7; 64% with TamR-MCF-7; 94% with MCF-7 ER^D538G; 96% in the assay on MCF-7 ER^Y537S; 100% in the assay with MDA-MB-231; 79% with MDA-MB-468. In the assay on MCF-7 ER^D538G, this molecule gave a 50% inhibitory concentration (IC50) of 230 nM.
Consider `CCN(CCOCCOCCOc1ccc2c(c1)C(=O)N(C1CCC(=O)NC1=O)C2=O)CCOc1ccc(Oc2c(-c3ccc(S(C)(=O)=O)cc3)ccc3cc(O)ccc23)cc1` (centres unmarked) [Compound D24, 2-(2,6-dioxopiperidin-3-yl)-5-(2-(2-(2-(ethyl(2-(4-((6-hydroxy-2-(4-(methylsulfonyl)phenyl)naphthalen-1-yl)oxy)phenoxy)ethyl)amino)ethoxy)ethoxy)ethoxy)isoindoline-1,3-dione], for which the inhibition at up to 10 µM was 74% in the assay on MCF-7; 60% in the assay with TamR-MCF-7; 93% with MCF-7 ER^D538G; 94% in the assay on MCF-7 ER^Y537S; 100% with MDA-MB-231; 62% with MDA-MB-468. This molecule also showed an IC50 with MCF-7 ER^D538G of 448 nM.
For `CCN(CCOc1ccc(Oc2c(-c3ccc(S(C)(=O)=O)cc3)ccc3cc(O)ccc23)cc1)C(=O)c1ccc(CCC2CCN(C3CCN(c4cccc5c4C(=O)N(C4CCC(=O)NC4=O)C5=O)CC3)CC2)cc1` (centres unmarked) [Compound D33, 4-(2-(1′-(2-(2,6-dioxopiperidin-3-yl)-1,3-dioxoisoindolin-4-yl)-[1,4′-bipiperidin]-4-yl)ethyl)-N-ethyl-N-(2-(4-((6-hydroxy-2-(4-(methylsulfonyl)phenyl)naphthalen-1-yl)oxy)phenoxy)ethyl)benzamide], the inhibition at up to 10 µM in the assay on MCF-7 is 45%; in the assay on TamR-MCF-7, 45%; with MCF-7 ER^D538G, 92%; in the assay with MCF-7 ER^Y537S, 76%; with MDA-MB-231, 57%; in the assay with MDA-MB-468 it was 94%. The same molecule came in with an IC50 with MCF-7 ER^D538G of 288 nM.
For `CCN(CCOCCOCCN1CCN(c2ccc3c(c2)C(=O)N(C2CCC(=O)NC2=O)C3)CC1)CCOc1ccc(Oc2c(-c3ccc(S(C)(=O)=O)cc3)ccc3cc(O)ccc23)cc1` (centres unmarked) [Compound D49], the inhibition at up to 10 µM was 42% in the assay with MCF-7; 42% in the assay on TamR-MCF-7; 96% in the assay with MCF-7 ER^D538G; 86% in the assay on MCF-7 ER^Y537S; 97% in the assay on MDA-MB-231; 99% with MDA-MB-468. This molecule returned an IC50 in the assay on MCF-7 ER^D538G of 202 nM.
On to `CS(=O)(=O)c1ccc(-c2ccc3cc(O)ccc3c2Oc2ccc(OCCNCCCCCNc3cccc4c3C(=O)N(C3CCC(=O)NC3=O)C4=O)cc2)cc1` (centres unmarked) [Compound D60, 2-(2,6-dioxopiperidin-3-yl)-4-((5-((2-(4-((6-hydroxy-2-(4-(methylsulfonyl)phenyl)naphthalen-1-yl)oxy)phenoxy)ethyl)amino)pentyl)amino)isoindoline-1,3-dione], for which the IC50 amounted to 954 nM with MCF-7 and 977 nM in the assay with MCF-7 ER^D538G. The inhibition at up to 10 µM in the assay on MCF-7 was 82%; with TamR-MCF-7, 50%; with MCF-7 ER^D538G, 96%; with MCF-7 ER^Y537S, 92%; in the assay with MDA-MB-231 it was 96%; with MDA-MB-468, 51%.
